# A melting point compilation (Tetko et al.; mined from patent text by program, amines drawn as free bases though some values may be those of a salt)
row,melting point [°C],Structure (SMILES)
1,160 to 162,CC1=NN(CCN2CCOCC2)S(=O)(=O)c2sc(S(N)(=O)=O)cc21
2,183 to 185,O=C1NCCC[C@@H]1NS(=O)(=O)c1cc(F)ccc1F
3,81 to 82,CCOC(=O)C(=CNc1ccn(-c2ccccc2)n1)C(=O)OCC
4,> 250,COc1cc2c(Nc3ccc(Cl)cc3F)ncnc2cc1OCCN1CCNC1=O
5,107,COCc1cc(OCc2ccccc2)c2nc(C)c(C)n2c1
6,220 to 225,CC(C(=O)O)S(=O)(=O)c1ccc2c(-c3ccccc3F)noc2c1Cl (stereo unspecified)
7,224 to 226,O=C(NCCc1ccccc1)Nc1ccc(CN2C(=O)[C@H]3CCC[C@H]3N(C(=O)CCl)c3ccccc32)cc1 (relative stereo)
8,115 to 116,COC(=O)Cc1ccc(OCc2ccc(-c3ccccc3)cc2)cc1
9,183 to 185,c1ccc(-c2cn3c(n2)sc2cnccc23)cc1
10,124,COc1ccc(C2CCN(C(=O)C(=O)NO)CC2)cc1OC1CCCC1
11,276 to 278,O=C(OCc1ccccc1)N1CCC(c2[nH]c(=O)c3ccccc3c2-c2ccccc2)CC1
12,155 to 156,CCOC(=O)C=CC=Cc1ccc(C=Cc2nc(-c3ccco3)oc2C)cc1
13,168 to 169,Cc1nnc(-c2ccc3occ(-c4ccc(S(C)=O)c(F)c4)c3c2)o1 (stereo unspecified)
14,97,O=[N+]([O-])c1ccc(Cl)cc1Nc1ccccc1Cl
15,220 to 223,CCOCc1nc2c(N)nc3ccccc3c2n1CCCC(C)=NO
16,82 to 86,COc1ccccc1Oc1c(NS(=O)(=O)c2ccc(C(C)(C)C)cc2)nc(NCCN(C)C)nc1OCCOC1CCCCO1 (stereo unspecified)
17,157 to 158,O=[N+]([O-])c1ccc(C(Cl)=NNc2ccccc2)cc1
18,159 to 160,CC(C)(C)OC(=O)CS(=O)(=O)c1cccc(-c2nc(=O)c3ccccc3s2)n1
19,> 270,CC1(C)CC(NC(=O)c2ccc(-c3cc4cc(Cl)c(Cl)cc4[nH]3)c(O)c2)CC(C)(C)N1
20,135 to 136,COc1ccc(C(=O)c2c(CBr)n(C(C)=O)c(=O)n2C(C)=O)cc1
21,297 to 298,COc1ccc(-n2cc(C(=O)O)c3nc4c(C)cccc4cc3c2=O)cc1OC
22,63 to 67,CCOC(=O)Cn1nnnc1C(=O)c1ccccc1
23,199 to 200,COc1ccc(-c2ccc(NC(=O)C=Cc3ccc(CN4CCCC4)cc3)cc2)cc1
24,145 to 146,CCCc1c(OCCCCCCc2ccc(O)c(O)c2Cl)ccc(C(=O)O)c1O

row,melting point [°C],Structure (SMILES)
1,210 to 212,N#CC(C(=O)Nc1cccc(C(F)(F)F)c1)C(=O)c1ccc[nH]1 (stereo unspecified)
2,203 to 204,CCCCCCCCCCCCS(=O)(=O)Nc1cc(-c2nc3cc(Cl)c(Cl)cc3[nH]2)ccc1OC
3,262 to 263,O=c1[nH]c(-c2ccc(Cl)c(Cl)c2)co1
4,246,CCOC(=O)c1c(N2CCN(C(=O)c3ccco3)CC2)c2sccc2n(CC(=O)c2ccccc2)c1=O
5,243 to 244,CN(C)C(=O)Nc1snc(S(C)(=O)=O)c1C#N
6,52 to 54,Cn1nnnc1SCCCCCCCCSc1nnnn1C
7,90,C=C[C@H](C)[C@@](N)(C(N)=O)c1ccccc1 (relative stereo)
8,106,COc1cc(C(=O)c2ccc(N)c(C(=O)O)c2)n2ccccc12
9,85 to 90,O=C1NCCN1C1CCN(CCC2COc3cc(Cl)c(Cl)cc3O2)CC1 (stereo unspecified)
10,65 to 67,CCCOC(=Nc1sccc1C#N)OCCC
11,171 to 172,COc1ccc(S(=O)(=O)Nc2cccnc2Nc2ccccc2)cc1OC
12,123 to 124,COc1cc(C=CC(C)=O)ccc1OCC1CO1 (stereo unspecified)
13,136 to 138,C=CCNC(=O)C(O)C1OC(n2cnc3c(N)ncnc32)C(O)C1O (stereo unspecified)
14,93 to 96,O=S(=O)(c1ccc(F)cc1)c1cncc(OC2SCC(O)C(O)C2O)c1 (stereo unspecified)
15,121 to 123,CCOCc1cnc2c(NC(=O)c3c(Cl)cccc3Cl)cccc2c1Cl
16,46,COc1c(C)c(C)c(OC)c(CC/C(C)=C/CO)c1C
17,240 to 242,Cc1cc(C)c(Nc2nc(C)ncc2S(=O)(=O)c2ccc(C3=NCCN3)cc2)c(C)c1
18,108 to 110,CC[C@@]12C[C@@](C)(O)[C@](O)(c3ccccc3)C[C@H]1CCc1cc(OCc3nnn[nH]3)ccc12
19,161 to 177,COCC1CCCN1Cc1ccc(-c2cc3ncnc(Nc4ccc5[nH]ccc5c4)c3s2)cc1 (stereo unspecified)
20,222,Cc1ccc2c(c1)N=C(N1CCN(C)CC1)c1cscc1O2
21,99 to 100,COc1ccc(CCNCC(O)c2ccc(C)cc2)cc1OC (stereo unspecified)
22,100 to 102,CN(C)c1c(C#N)c(N)nn1C
23,280,Nc1cc(-c2noc(-c3cnc4ccc(-c5ccc(C(F)(F)F)cc5)cn34)n2)ccn1
24,> 290,O=C1C(c2c[nH]c3ccccc23)=C(c2c[nH]c3ccccc23)C(=O)N1Cc1ccccc1

row,melting point [°C],Structure (SMILES)
1,172 to 174,CN(c1ccc(Cl)cc1)S(=O)(=O)c1cc(C(=O)Nc2ccc(S(C)=O)cc2)ccn1 (stereo unspecified)
2,145 to 146,CC(C)Oc1ccc2ccc(C(N)=O)c(OC(C)C)c2c1
3,88 to 91,COc1ccc2c(c1)CCC(c1ccncc1)O2 (stereo unspecified)
4,132 to 134,CCOC(=O)/C=C1\OC(=O)c2ccccc21
5,102 to 104,CC1CN(c2ccc(N3CC(CNC(=O)CC#N)OC3=O)cc2F)CCC1=CC#N (stereo unspecified)
6,133 to 135,CCN(CC)CC#CC(=O)Nc1ccc2ncc(C#N)c(Nc3cccc(Br)c3)c2c1
7,241 to 243,COC(=O)c1cc(-c2ccccc2)c(=O)n2c1-c1sccc1S(=O)(=O)C=C2
8,95 to 96,Cc1c(NCc2ccccc2)c2c(c3c1C(c1ccc(C(C)C)cc1)CO3)CCC2 (stereo unspecified)
9,96 to 97,CCOC(=O)CNC(=O)CC(=O)CCl
10,200 to 204,c1cn(Cc2ccc3c(c2)-c2[nH]nc(-c4ccsc4)c2C3)cn1
11,161 to 162,COc1ccc(S(=O)(=O)C(CCc2ccccc2)CC(=O)O)cc1OC (stereo unspecified)
12,107 to 110,CN(c1cc(OCCCS(C)(=O)=O)cc2cc(C3=NCC(CN4CCS(=O)CC4)S3)[nH]c12)S(=O)(=O)c1ccccn1 (stereo unspecified)
13,122 to 124,Cc1cc(N2C(=O)N(CCCCCCCCCSCCCC(F)(F)C(F)(F)F)C(C)(C)C2=O)ccc1NS(=O)(=O)NC(=O)OC(C)(C)C
14,189 to 191,COc1ccc(S(=O)(=O)N2C(=O)C(c3ccccc3OC)(N3C[C@H](OC)C[C@H]3C(=O)N(C)C)c3cc(Cl)ccc32)c(OC)c1 (stereo partly specified)
15,285 to 286,CC1=C(Nc2ccc(C3=NNC(=O)CC3C)cc2)CCC1=O (stereo unspecified)
16,204 to 205,CC(=O)c1cccn1N1C(=O)c2ccccc2C1=O
17,107 to 108,CCCCOc1ccc(F)cc1OCCN1C(=O)c2ccccc2C1=O
18,66 to 68,C[C@@H]1O[C@@]1(Cn1cncn1)c1ccc(F)cc1F (racemic)
19,240 to 244,Cc1c(Cc2ccc([N+](=O)[O-])cc2)c(=O)oc2cc(OCc3nnn[nH]3)cc(OCc3nnn[nH]3)c12
20,> 260,CCc1cc(C(=O)CBr)ccc1O
21,169 to 170,C#CCOc1ccc(C)cc1S(N)(=O)=O
22,123 to 127,CC(C)C[C@H](NC(=O)C12CC3CC(CC(C3)C1)C2)C(=O)NCC(N)=O
23,136 to 137,CC(C)(C)OC(=O)N1CC[C@H](c2ccc(OCC3OCCO3)cc2)[C@@H](O)C1 (racemic)
24,> 270,Nc1cc(-n2cc(C(=O)O)c(=O)c3cc(F)c(Cl)nc32)c(F)cc1Cl

row,melting point [°C],Structure (SMILES)
1,137 to 138,CNC1Cc2ccccc2C1Nc1ccc(Cc2ccccc2)cc1 (stereo unspecified)
2,328 to 330,CNC(=O)c1ccc(-c2cnc3[nH]c(=O)n(CC4CCOCC4)c3n2)cc1
3,103 to 105,CCCCc1cnc(C(N)=O)cc1N
4,75 to 80,O=C(Nc1ccccn1)[C@H](Cc1ccccc1)C[C@@H](Cc1ccccc1)C(=O)N[C@@H](CSCc1ccccc1)C(=O)O
5,37 to 37.5,CCCCCCCCCCCCCCCC(=O)OC[C@H](O)COC(C)=O
6,81 to 83,CC(C)CC(Oc1c(Br)cc(-c2ccc(-c3c(Cc4ccccc4)oc4ccccc34)cc2)cc1Br)C(=O)O (stereo unspecified)
7,288,NS(=O)(=O)c1cccc(-c2noc(-c3cnc4ccc(-c5ccc(C(F)(F)F)cc5)cn34)n2)c1
8,157 to 159,CC(C)(C)OC(=O)Nc1ncc(F)s1
9,217 to 221,O=C(O)Cc1ccc(-c2cn3ccccc3n2)cc1
10,103 to 105,COc1ccc(OC)c2c(Nc3cccc(N(C)C)c3)c(C#N)cnc12
11,131 to 133,CCN(CC)CCOc1ccc2ncn(/C=C/C(=O)OC)c(=O)c2c1
12,62 to 70,COc1ccc2cc(C(C)C(=O)ON(C(N)=O)C(C)c3cc4ccccc4s3)ccc2c1 (stereo unspecified)
13,228 to 230,CCCc1ncc(/C=C2\C(=O)N(CC(=O)OC)c3cccc(C)c32)n1Cc1ccc(C(=O)OC)cc1
14,> 300,COCCNc1nc(C2C(=O)Nc3ccc(Br)cc32)c2cn(CCOC)nc2n1 (stereo unspecified)
15,185 to 186,O=C(O)CCc1cn(Cc2ccc(OCc3ccc(-c4ccccc4)nc3)cc2)cc1-c1ccccc1
16,258 to 261,CC(=O)Nc1cc2c(cc1[N+](=O)[O-])OC(C)(C)[C@@H](O)[C@@H]2N (relative stereo)
17,81,CCCCc1oc2ccc([N+](=O)[O-])cc2c1C(=O)c1ccc(OCCBr)cc1
18,116,COc1nc(C)c2c(c1C#N)CCCC2
19,172 to 174,COc1cc(C2=NC(C)(C)CO2)cc(OC)c1Br
20,88,O=C(CCCCCN1CCN(c2cccc(C(F)(F)F)c2)CC1)N1Cc2ccc(OCCN3CCCCC3)cc2C1
21,196 to 198,CC1(C)OC[C@H](CCOc2ccc(-c3nc4c5ccccc5c5ccccc5c4[nH]3)cc2)O1
22,246 to 252,CC(=O)C1=CCC2C3CCC4CC(O)C(Cl)CC4(C)C3CCC12C (stereo unspecified)
23,171 to 174,O=C(O)Cc1cc(Br)c(S(=O)(=O)c2ccc(O)c(C3CCCC3)c2)c(Br)c1

row,Structure (SMILES),melting point [°C]
1,CCN(CC)C(=O)c1ccc(C(=C2CCNCC2)c2cccc(OC)c2)cc1,> 90
